Consider 52 compounds from US20220251081A1, “HETEROBICYCLIC INHIBITORS OF MAT2A AND METHODS OF USE FOR TREATING CANCER” (priority 2019, published 2022).

The structures appear in SMILES notation.

T1 sequence (P31153 whole entry): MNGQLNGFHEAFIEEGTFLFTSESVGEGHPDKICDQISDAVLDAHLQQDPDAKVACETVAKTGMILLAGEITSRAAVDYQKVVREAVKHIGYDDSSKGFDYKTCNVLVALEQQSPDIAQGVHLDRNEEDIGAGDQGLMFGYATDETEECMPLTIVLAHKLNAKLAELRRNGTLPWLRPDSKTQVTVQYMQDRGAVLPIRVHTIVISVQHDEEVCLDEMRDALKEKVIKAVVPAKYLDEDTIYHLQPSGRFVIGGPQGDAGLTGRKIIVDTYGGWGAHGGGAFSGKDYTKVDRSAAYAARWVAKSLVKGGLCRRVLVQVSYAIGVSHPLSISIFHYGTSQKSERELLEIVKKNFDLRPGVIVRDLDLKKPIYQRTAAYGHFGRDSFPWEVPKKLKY

This test addresses T1, MAT2A homodimer (Homo sapiens, UniProt P31153).
T1 construct: inferred from Ni sepharose purification and imidazole elution; made in house; host or cells: Sf9 insect cells, recombinant baculovirus (Bac to Bac, pFASTBAC1 vector)
Kind of test: Biochemical assay: inhibition of recombinant MAT2A homodimer (phosphate release, PiColorLock Gold). The settings on record: MAT2A IC50 score; read-out: Enzyme Inhibition. On the procedure: Mat2A protein was expressed by recombinant baculovirus in SF9 infected cells using the Bac to Bac system cloned into the pFASTBAC1 vector (Invitrogen, Carlsbad, Calif.). Recombinant MAT2A was isolated from the cell lysate of 150 g of infected cells using HP Ni sepharose column chromatography. Recombinant MAT2A homodimer was eluted with 250 and 500 mM imidazole, and fractions containing MAT2A were identified by sodium dodecyl sulfate polyacrylamide gel electrophoresis and pooled.
For determination of the inhibitory potency of compounds against the MAT2A homodimer, protein was diluted to 4 μg/mL in assay buffer (50 mM Tris, pH 8.0, 50 mM KCl, 15 mM MgCl2, 0.3 mM EDTA, 0.005% [w/v] bovine serum albumin [BSA]). Test compound was prepared in 100% dimethyl sulfoxide (DMSO) at 50× the desired final concentration. A 1 μL volume of compound dilution was added to 40 μL of enzyme dilution and the mixture was allowed to equilibrate for 60 minutes at 25° C. The enzymatic assay was initiated by the addition of 10 μL of substrate mix (500 μM ATP, pH 7.0, 40 μM L-methionine in 1× assay buffer), and the mixture was incubated for a further 60 minutes at 25° C. The reaction was halted and the liberated phosphate released by the enzyme in stoichiometric amounts by the production of S-adenosyl methionine (SAM) was measured using the PiColorLock Gold kit (Innova Biosciences, UK). Absolute product amounts were determined by comparison to a standard curve of potassium phosphate buffer, pH 8.0.
As to `COc1ccc(-c2cc3cnc(NCC4CC4)nc3n(-c3ccccc3)c2=O)cc1` [Example 102], the IC50 was in the range of 100 to 1000 nM.
`COc1ccc(-c2cc3cnc(NCC(F)(F)F)nc3n(-c3ccccc3)c2=O)cc1` [Example 103]: the IC50 was in the range of 100 to 1000 nM.
As to `COc1ccc(-c2cc3cnc(S(C)(=O)=O)nc3n(-c3ccccc3)c2=O)cc1` [Example 104], the IC50 was 1000 to 10000 nM.
To `COc1ccc(-c2cc3cnc(S(C)(=O)=O)nc3n(-c3ccc(O)cc3)c2=O)cc1` [Example 105] belongs 1000 to 10000 nM.
On to `COc1ccc(-c2cc3cnc(NCC(F)(F)F)nc3n(-c3ccncc3)c2=O)cc1` [Example 107], for which the IC50 is 100 to 1000 nM.
As for `COc1ccc(-c2cc3cnc(SC)nc3n(-c3ccc(OC(F)(F)F)cc3)c2=O)cc1` [Example 108], the IC50 is 1000 to 10000 nM.
As for `COc1ccc(-c2cc3cnc(NCC(F)(F)F)nc3n(-c3ccc(OC(F)(F)F)cc3)c2=O)cc1` [Example 109], the IC50 fell in the range of 100 to 1000 nM.
On to `COc1ccc(-c2cc3cnc(SC)nc3n(-c3ccc(Cl)cc3)c2=O)cc1` [Example 110], for which the IC50 was 100 to 1000 nM.
For `COc1ccc(-c2cc3cnc(SC)nc3n(-c3ccc(C(F)(F)F)cc3)c2=O)cc1` [Example 111], the IC50 lay in the range of 1000 to 10000 nM.
Turning to `COc1ccc(-c2cc3cnc(NCC(F)(F)F)nc3n(-c3ccc(C(F)(F)F)cc3)c2=O)cc1` [Example 112], the IC50 is less than 100 nM.
For `COc1ccc(-c2cc3cnc(SC)nc3n(-c3ccc(OC)cc3)c2=O)cc1` [Example 113] the value was 100 to 1000 nM.
Regarding `COc1ccc(-n2c(=O)c(-c3ccc4ncccc4c3)cc3cnc(SC)nc32)cc1` [Example 114], the IC50 was in the range of 100 to 1000 nM.
Consider `COc1ccc(-c2cc3cnc(NCC(F)(F)F)nc3n(-c3ccc(C#N)cc3)c2=O)cc1` [Example 117], for which the IC50 was in the range of 100 to 1000 nM.
For `COc1ccc(-c2cc3cnc(NCC(F)(F)F)nc3n(-c3ccc4sccc4c3)c2=O)cc1` [Example 125, 8-(benzo[b]thiophen-5-yl)-6-(4-methoxyphenyl)-2-(2,2,2-trifluoroethylamino)pyrido[2,3-d]pyrimidin-7(8H)-one] the value was less than 100 nM; for `COc1ccc(-c2cc3cnc(NCC(F)(F)F)nc3n(-c3ccc(Cl)cc3)c2=O)cc1` [Example 126], less than 100 nM; for `COc1ccc(-c2cc3cnc(NCC(F)(F)F)nc3n(-c3ccc4[nH]ccc4c3)c2=O)cc1` [Example 128], 100 to 1000 nM.
For `COc1ccc(-c2cc3ccc(NCC(F)(F)F)nc3n(-c3ccc(C4CC4)cc3)c2=O)cc1` [Example 132] the value was less than 100 nM.
To `COc1ccc(-c2cc3ccc(NCC(F)(F)F)nc3n(-c3ccc(Cl)cc3)c2=O)cc1` [Example 133] belongs less than 100 nM; to `COc1ccc(-c2cc3ccc(NCC(F)(F)F)nc3n(-c3ccc(C4CC4)nc3)c2=O)cc1` [Example 134], less than 100 nM.
`CCOc1ccc2cc(-c3ccc(OC)cc3)c(=O)n(-c3ccc(C)nc3)c2n1` [Example 136, 7-ethoxy-3-(4-methoxyphenyl)-1-(6-methylpyridin-3-yl)-1,8-naphthyridin-2(1H)-one]: the IC50 was less than 100 nM.
Take `CCOc1ccc2cc(-c3ccc4nn(C)cc4c3)c(=O)n(-c3ccc(C)nc3)c2n1` [Example 137]: the IC50 is less than 100 nM.
Regarding `CCOc1ccc2cc(-c3ccc(OC)cc3)c(=O)n(-c3ccc(C(F)(F)F)cc3)c2n1` [Example 141], the IC50 is less than 100 nM.
For `CCOc1ccc2cc(-c3ccc(OC)cc3)c(=O)n(-c3cnc(NC)nc3)c2n1` [Example 143], the IC50 was less than 100 nM.
Regarding `[2H]C([2H])([2H])Nc1ccc(-n2c(=O)c(-c3ccc4nn(C)cc4c3)cc3ccc(OCC)nc32)cn1` [Example 146], the IC50 was less than 100 nM.
For `CCOc1ccc2cc(-c3ccc(OC)cc3)c(=O)n(-c3ccc(Cl)cc3)c2n1` [Example 154] the value was less than 100 nM.
For `CCOc1ccc2cc(-c3ccc(OC)cc3)c(=O)n(-c3ccc(OC(F)(F)F)nc3)c2n1` [Example 156] the value was 100 to 1000 nM; for `CNC(=O)c1ccc(-c2cc3cnc(NCC(F)(F)F)nc3n(-c3ccc(OC)cc3)c2=O)cc1` [Example 170, 4-(8-(4-methoxyphenyl)-7-oxo-2-(2,2,2-trifluoroethylamino)-7,8-dihydropyrido[2,3-d]pyrimidin-6-yl)-N-methylbenzamide], 100 to 1000 nM.
Turning to `COc1ccc(-n2c(=O)c(-c3ccc(OC)cn3)cc3cnc(NCC(F)(F)F)nc32)cc1` [Example 175], the IC50 was 100 to 1000 nM.
On to `COc1ccc(-n2c(=O)c(-c3ccc(OC)c(C)c3)cc3cnc(NCC(F)(F)F)nc32)cc1` [Example 178], for which the IC50 fell in the range of 100 to 1000 nM.
With `COc1ccc(-n2c(=O)c(-c3ccc(S(C)(=O)=O)cc3)cc3cnc(NCC(F)(F)F)nc32)cc1` [Example 179], the IC50 lay within 100 to 1000 nM.
Turning to `COc1ccc(-n2c(=O)c(-c3ccncc3)cc3cnc(NCC(F)(F)F)nc32)cc1` [Example 181], the IC50 lay within 100 to 1000 nM.
Take `COc1ccc(-n2c(=O)c(-c3ccc4nncn4c3)cc3cnc(NCC(F)(F)F)nc32)cc1` [Example 182]: the IC50 lay within 1000 to 10000 nM.
For `COc1ccc(-n2c(=O)c(-c3ccc(OC)c(F)c3)cc3cnc(NCC(F)(F)F)nc32)cc1` [Example 184] the value was 100 to 1000 nM; for `COc1ccc(-n2c(=O)c(-c3ccc4c(c3)C(C)(C)CO4)cc3cnc(NCC(F)(F)F)nc32)cc1` [Example 190], less than 100 nM.
As to `COc1ccc(-n2c(=O)c(-c3ccc4c(c3)OC(C)(C)O4)cc3cnc(NCC(F)(F)F)nc32)cc1` [Example 191], the IC50 lay within 100 to 1000 nM.
For `O=c1c(-c2ccc3nccn3c2)cc2cnc(NCC(F)(F)F)nc2n1-c1ccc(C2CC2)cc1` [Example 192], the IC50 is less than 100 nM.
For the compound `Cn1cc(-c2cc3cnc(NCC(F)(F)F)nc3n(-c3ccc(C4CC4)cc3)c2=O)ccc1=O` [Example 193], the IC50 was less than 100 nM.
To `CCOc1ccc2cc(-c3ccc(OC(F)F)cc3)c(=O)n(-c3ccc(OC(F)F)cc3)c2n1` [Example 198] belongs less than 100 nM; to `CCOc1ccc2cc(-c3ccc(OCCN(C)C)cc3)c(=O)n(-c3ccc(OC(F)F)cc3)c2n1` [Example 206], less than 100 nM; to `CCOc1ccc2cc(-c3ccc4nn(CC(C)(C)C)cc4c3)c(=O)n(-c3ccc(Cl)cc3)c2n1` [Example 211], less than 100 nM.
As to `CCOc1ccc2cc(-c3ccc4nn(CC(C)(C)O)cc4c3)c(=O)n(-c3ccc(OC(F)(F)F)nc3)c2n1` [Example 212], the IC50 is less than 100 nM.
For `Cn1cc(-c2cc3cnc(NCC(F)(F)F)nc3n(-c3ccc(-c4cc[nH]n4)cc3)c2=O)ccc1=O` [Example 234, 8-(4-(1H-pyrazol-5-yl)phenyl)-6-(1-methyl-6-oxo-1,6-dihydropyridin-3-yl)-2-(2,2,2-trifluoroethylamino)pyrido[2,3-d]pyrimidin-7(8H)-one] the value was less than 100 nM; for `[2H]C([2H])([2H])Oc1ccc(-c2cc3ccc(NCC(F)(F)F)nc3n(-c3ccc(OC([2H])([2H])[2H])cc3)c2=O)cc1` [Example 306], less than 100 nM; for `Cn1cc2cc(-c3cc4ccc(NCC(F)(F)F)nc4n(-c4ccc(C5CC5)nc4)c3=O)ccc2n1` [Example 311], less than 100 nM.
To `CCNc1ccc2cc(-c3ccc4nn(C)cc4c3)c(=O)n(-c3ccc(N)nc3)c2n1` [Example 312] belongs less than 100 nM; to `CN(C)c1ccc(-n2c(=O)c(-c3ccc4nn(C)cc4c3)cc3ccc(OCC(F)(F)F)nc32)cn1` [Example 315], less than 100 nM.
On to `COc1ccc(-n2c(=O)c(-c3ccc4nn(CCO)cc4c3)cc3ccc(OCC(F)(F)F)nc32)cc1` [Example 323], for which the IC50 is less than 100 nM.
Consider `CCNc1ccc2nc(-c3ccc4nn(C)cc4c3)c(=O)n(-c3ccc(C4CC4)nc3)c2n1` [Example 336], for which the IC50 is less than 100 nM.
For the compound `CCNc1ccc2nc(-c3ccc4nn(C)cc4c3)c(=O)n(-c3ccc(C)nc3)c2n1` [Example 337], the IC50 was less than 100 nM.
For the compound `Cn1cc2cc(-c3nc4ccc(OCC(F)(F)F)nc4n(-c4ccc(Cl)cc4)c3=O)ccc2n1` [Example 339], the IC50 is less than 100 nM.
To `CN(C)c1ccc(-n2c(=O)c(-c3ccc4nn(C)cc4c3)nc3ccc(OCC(F)(F)F)nc32)cn1` [Example 349, 4-(6-(dimethylamino)pyridin-3-yl)-2-(2-methyl-2H-indazol-5-yl)-6-(2,2,2-trifluoroethoxy)pyrido[2,3-b]pyrazin-3(4H)-one] belongs less than 100 nM; to `Cn1cc2cc(-c3nc4ccc(OCC(F)(F)F)nc4n(-c4ccc(N)nc4)c3=O)ccc2n1` [Example 350, 4-(6-aminopyridin-3-yl)-2-(2-methyl-2H-indazol-5-yl)-6-(2,2,2-trifluoroethoxy)pyrido[2,3-b]pyrazin-3(4H)-one], 100 to 1000 nM.
